Data from patent publication US8518894B2, “Human milk peptides” (priority 2009, dated 2013).
“Also recorded” adds a separate entry of the source.

Columns and labels:
[1] = system: TNF-α expression in RAW 264.7 cells; assay: Cytokine expression in LPS-activated mouse macrophage cell line, TNF-α ELISA; format: cell-based; settings: 1 μg/ml LPS, 24 hours
[2] = Oxygen Radical Absorbance Capacity (ORAC) assay; settings: synthetic peptides; for ORAC value (scavenging activity): per g of peptide
Description: This assay measures the scavenging capacity of antioxidant nutrients against the peroxyl radical [Diehl-Jones W L and Askin D F. American Association of Critical Care Nurses (AACN) Clin Issues 15: 83 (2004)], which is one of the most common reactive oxygen species (ROS) in the human body. […] To identify the peptides in fraction #23, the sample was injected into an LC-MS/MS system.

[3] = system: MCP-1 secretion from human PBMCs; assay: MCP-1 secretion from peripheral blood mononuclear cells after peptide exposure (sandwich ELISA); format: cell-based; settings: 24 h exposure, 20 and 100 μg/ml
Description: FIG. 13 illustrates stimulation of MCP-1 and Gro-a sectretion from human peripheral blood mononuclear cells (PBMCs) after 24 h exposure to peptides 1-8 (SEQ ID NOs. 1, 29, 2, 8, 9, 19, and 22, respectively) from fraction #23. The experiment was carried out in 4 biological replicates (4 different donors), with 2 technical repeats in each biological experiment. The peptide fragments were tested at 2 concentrations, 20 and 100 μg/ml and MCP-1 and Gro-a were detected by sandwich ELISA kits (BioSource International and eBiosciences, respectively). A positive control peptide (1002) was used in the experiment.
Venous blood from healthy volunteers is collected in Vacutainer® collection tubes containing sodium heparin as an anticoagulant (BD Biosciences). […] The buffy coat is collected and washed twice in RPMI 1640 complete medium, and the number of PBMCs can be determined by trypan blue exclusion. […]
Following 24 hrs of peptide exposure, the tissue culture supernatants are centrifuged at 16,000G (13,000 rpm) at 4° C. for 5 minutes in an IEC MicroMax centrifuge to obtain cell-free samples. […] Cytokines/chemokines are detected by sandwich ELISA kits (BioSource International or eBiosciences) and multiplex kit (Luminex). […] The concentration of the cytokines/chemokines in the culture medium can be quantified by establishing a standard curve with serial dilutions of the recombinant human cytokines/chemokines. […]

[4] = system: IL-6 expression in RAW 264.7 cells; assay: Cytokine expression in LPS-activated mouse macrophage cell line, IL-6 ELISA; format: cell-based; settings: 100 μg/ml peptide, 1 μg/ml LPS, 24 hours
Description: FIG. 11 illustrates the effects of peptides of fraction #23 and tryptophan on TNF-α and IL-6 expression in RAW 246.7 cells. All values expressed in pg/ml +/− SD. Cells grown in 24-well culture tissue-culture grade plates (Corning) and incubated with 100 μg/ml of one of eight milk peptides 1-8 (SEQ ID NOs. 28, 1, 29, 2, 8, 9, 19, and 22, respectively) and 1 μg/ml LPS.
A mouse macrophage cell line (RAW 264.7) was activated with 1 μg/m1 lipopolysaccharide (LPS), a gram negative bacterial cell wall product which induces the expression of inflammatory cytokines (Interleukin-6 [IL-6] and Tumor Necrosis Factor alpha [TNF-α]) via activation of toll-like receptors [Wu, T. T. et al. Toxicol Let. 195-202 (2009). After incubation with LPS for 24 hours in the presence of the peptides from example 7, cell supernatant was collected and mouse IL-6 and TNF-α titres were determined by a standard micro-plate enzyme-linked immunosorbent assay (ELISA) technique (e-Biosciences).

[5] = system: IL-8 secretion in Caco-2 cells; assay: LPS induced IL-8 secretion in Caco-2 cell culture model; format: cell-based; settings: 50, 100, 200 μg/ml, 4, 8, 20, 24 h
Description: Culture medium for non-peptide treated cells was used as control. *P<0.05 indicates a significant difference between the 23-8 treated group and the control group (one-way ANOVA, n=4).

Compound | ORAC value (scavenging activity) [2] [uM Trolox/g] | radical scavenging activity in ORAC assay (in words) [2] | TNF-α expression compared to the control (cell culture medium plus LPS) ([1]; 100 μg/ml peptide) | also measured
N[C@@H](Cc1c[nH]c2ccccc12)C(=O)O [tryptophan, L-tryptophan, reference compound] |  |  |  | TNF-α expression compared to the control (cell culture medium plus LPS) ([1]; 100 μM tryptophan): greatest inhibition
HNPI (listed as Homo sapiens) [SEQ ID NO. 28, fragment from human beta casein in fraction #23] | 114 ±14 |  |  | levels of MCP-1 from PBMCs [3]: robust response; also recorded: significant activity
ISELGW (listed as Homo sapiens) [SEQ ID NO. 22, tryptophan-containing peptide of fraction #23, not matched to a human milk protein] |  | most radical scavenging properties | significantly inhibited | IL-6 expression [4]: significantly reduced; LPS induced interleukin-8 (IL-8) secretion [5]: decrease; levels of MCP-1 from PBMCs [3]: robust response; also recorded: significantly increased
PLAQPA (listed as Homo sapiens) [SEQ ID NO. 29, fragment from human beta casein in fraction #23] |  | No scavenging activities | significantly inhibited | 
SEQ ID NO. 2: human beta-casein f(169-173), identified in fraction #23 (VPYPQ; listed as Homo sapiens) | 3940±623 |  | significantly inhibited | 
SEQ ID NO. 8: human kappa-casein f(31-36), identified in fraction #23 (VPNSYP; listed as Homo sapiens) | 3462±560 |  |  | 
SEQ ID NO. 9: human kappa-casein f(53-58), identified in fraction #23 (NPYVPR; listed as Homo sapiens) | 3380±592 |  |  | 
SEQ ID NO. 19: tyrosine-containing peptide of fraction #23, not matched to a human milk protein (YGYTGA; listed as Homo sapiens) | 8205±552 | most radical scavenging properties | significantly inhibited | 
VPVQA (listed as Homo sapiens) [SEQ ID NO. 1, fragment from human beta casein in fraction #23] |  | No scavenging activities | significantly inhibited | 
